In patent US20250122208A1, “CHEMOKINE RECEPTOR MODULATORS AND USES THEREOF” (RAPT THERAPEUTICS, INC., priority 2023, published 2025):

Molecular target: T1, CCR4 receptor (Homo sapiens, UniProt P51679)
T1 construct: beta-galactosidase enzyme-fragment tag; From own knowledge, PathHunter uses a ProLink/enzyme-donor fragment, usually at the receptor's C-terminus; expressed in transfected cells; host or cells: CHO-K1
T1 sequence (P51679 1-360): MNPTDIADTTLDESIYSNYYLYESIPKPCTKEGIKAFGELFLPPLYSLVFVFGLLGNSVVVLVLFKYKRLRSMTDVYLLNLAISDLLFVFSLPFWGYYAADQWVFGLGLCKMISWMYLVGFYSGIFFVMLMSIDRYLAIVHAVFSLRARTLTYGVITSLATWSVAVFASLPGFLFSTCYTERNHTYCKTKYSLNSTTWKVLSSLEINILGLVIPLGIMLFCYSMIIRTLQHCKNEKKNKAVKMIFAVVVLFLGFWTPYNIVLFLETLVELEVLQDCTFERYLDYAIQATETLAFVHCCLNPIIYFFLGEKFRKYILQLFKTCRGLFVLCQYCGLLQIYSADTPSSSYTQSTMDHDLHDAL
Assay: CCR4 antagonist activity in Beta-Arrestin Cellular Assay (PathHunter, CCL22 challenge)
Format: cell-based
Conditions: CHO-K1 cells expressing the CCR4 receptor; CCL22 at EC80 (15 nM), 90 minutes; 30 min pre-incubation; read-out: Potency (CCR4 antagonist IC50 in the β-arrestin assay)
Description: Example 39. Determination of CCR4 antagonist activity in Beta-Arrestin Cellular Assay
CCR4 Antagonistic Activity was assessed in Beta-Arrestin Cellular Assay. Compounds were assessed in CHO-K1 cells expressing the CCR4 receptor modified to enable β-glactosidase detection of β-arrestin agonist activity stimulated by CCL22 in a chemiluminescence assay. Cells were seeded in a total volume of 20 μL into white walled, 384-well microplates and incubated at 37° C. prior to testing. Cells were pre-incubated with test compound for 30 min at 37° C. followed by agonist challenge with CCL22 at the EC80 concentration (15 nM) for 90 minutes. Assay signal was generated through a single addition of 12.5 or 15 μL ([…]) of PathHunter Detection reagent cocktail, followed by a one-hour incubation at room temperature. Microplates were read following signal generation with a PerkinElmer Envision™ instrument for chemiluminescent signal detection. Antagonist activity was analyzed using CBIS data analysis suite (ChemInnovation, CA). Antagonist activity was characterized as percentage inhibition calculated using the following formula:
An IC50 of >500 nM is designated as Potency C, an IC50 of between 500 nM and 100 nM is designated as Potency B and an IC50 of <100 nM is designated as Potency A.

Row | Structure (SMILES) | IC50 [nM]
1 | C[C@@H](Nc1cc(N2CCC([C@H]3CCCN([C@H]4C[C@](C)(C(=O)O)C4)C3)CC2)nc2ccnn12)c1ccc(F)cc1F [Example 34, (1R,3r)-3-((R)-1′-(7-(((R)-1-(2,4-difluorophenyl)ethyl)amino)pyrazolo[1,5-a]pyrimidin-5-yl)-[3,4′-bipiperidin]-1-yl)-1-methylcyclobutane-1-carboxylic acid] | < 100
2 | CNC(=O)CCN1CCC[C@H](C2CCN(c3cc(N[C@H](C)c4ccc(Cl)cc4Cl)n4ncnc4n3)CC2)C1 [Example 17, 3-((R)-1′-(7-(((R)-1-(2,4-dichlorophenyl)ethyl)amino)-[1,2,4]triazolo[1,5-a]pyrimidin-5-yl)-[3,4′-bipiperidin]-1-yl)-N-methylpropanamide] | < 100
3 | C[C@@H](Nc1cc(N2CCC([C@H]3CCCN([C@H]4C[C@](C)(C(=O)O)C4)C3)CC2)nc2nccn12)c1ccc(Cl)cc1F [Example 27, (1R,3r)-3-((R)-1′-(5-(((R)-1-(4-chloro-2-fluorophenyl)ethyl)amino)imidazo[1,2-a]pyrimidin-7-yl)-[3,4′-bipiperidin]-1-yl)-1-methylcyclobutane-1-carboxylic acid] | < 100
4 | CC(=O)NCCN1CCC[C@H](C2CCN(c3cc(N[C@H](C)c4ccc(Cl)cc4Cl)n4ncnc4n3)CC2)C1 [Example 13, N-(2-((R)-1′-(7-(((R)-1-(2,4-dichlorophenyl)ethyl)amino)-[1,2,4]triazolo[1,5-a]pyrimidin-5-yl)-[3,4′-bipiperidin]-1-yl)ethyl)acetamide] | < 100
5 | Cc1ccc([C@@H](C)Nc2cc(N3CCC([C@H]4CCCN([C@H]5C[C@](C)(C(=O)O)C5)C4)CC3)nc3ncnn23)c(Cl)c1 [Example 30, (1R,3r)-3-((R)-1′-(7-(((R)-1-(2-chloro-4-methylphenyl)ethyl)amino)-[1,2,4]triazolo[1,5-a]pyrimidin-5-yl)-[3,4′-bipiperidin]-1-yl)-1-methylcyclobutane-1-carboxylic acid] | < 100
6 | C[C@@H](Nc1cc(N2CCC([C@H]3CCCN(Cc4nn[nH]n4)C3)CC2)nc2ncnn12)c1ccc(Cl)cc1Cl [Example 2, 5-((R)-1-((2H-tetrazol-5-yl)methyl)-[3,4′-bipiperidin]-1′-yl)-N-((R)-1-(2,4-dichlorophenyl)ethyl)-[1,2,4]triazolo[1,5-a]pyrimidin-7-amine] | < 100
7 | C[C@@H](Nc1cc(N2CCC(C3CCCN(CCO)C3)C2)nc2ncnn12)c1ccc(Cl)cc1Cl (single isomer, unassigned) [Example 23b] | < 100
8 | C[C@@H](Nc1cc(N2CCC([C@H]3CCCN(CC(F)(F)F)C3)CC2)nc2ncnn12)c1ccc(Cl)cc1Cl [Example 7, N-((R)-1-(2,4-dichlorophenyl)ethyl)-5-((R)-1-(2,2,2-trifluoroethyl)-[3,4′-bipiperidin]-1′-yl)-[1,2,4]triazolo[1,5-a]pyrimidin-7-amine] | > 500
9 | C[C@@H](Nc1cc(N2CCC([C@H]3CCCN(CCS(C)(=O)=O)C3)CC2)nc2ncnn12)c1ccc(Cl)cc1Cl [Example 12, N-((R)-1-(2,4-dichlorophenyl)ethyl)-5-((R)-1-(2-(methylsulfonyl)ethyl)-[3,4′-bipiperidin]-1′-yl)-[1,2,4]triazolo[1,5-a]pyrimidin-7-amine] | < 100
10 | C[C@@H](Nc1cc(N2CCC(C3CCCN(CCO)C3)C2)nc2ncnn12)c1ccc(Cl)cc1Cl (single isomer, unassigned) [Example 23a] | < 100
11 | C[C@@H](Nc1cc(N2CCC([C@H]3CCCN(C)C3)CC2)nc2ncnn12)c1ccc(Cl)cc1Cl [Example 9, N-((R)-1-(2,4-dichlorophenyl)ethyl)-5-((R)-1-methyl-[3,4′-bipiperidin]-1′-yl)-[1,2,4]triazolo[1,5-a]pyrimidin-7-amine] | < 100
12 | C[C@@H](Nc1cc(N2CCC([C@H]3CCCN([C@H]4C[C@](C)(C(=O)O)C4)C3)CC2)nc2ncnn12)c1ccc(F)cc1Cl [Example 26, (1R,3r)-3-((R)-1′-(7-(((R)-1-(2-chloro-4-fluorophenyl)ethyl)amino)-[1,2,4]triazolo[1,5-a]pyrimidin-5-yl)-[3,4′-bipiperidin]-1-yl)-1-methylcyclobutane-1-carboxylic acid] | < 100
13 | CC(CCN1CCC[C@H](C2CCN(c3cc(N[C@H](C)c4ccc(Cl)cc4Cl)n4ncnc4n3)CC2)C1)C(=O)O (mixture of isomers) [Example 16, 4-((R)-1′-(7-(((R)-1-(2,4-dichlorophenyl)ethyl)amino)-[1,2,4]triazolo[1,5-a]pyrimidin-5-yl)-[3,4′-bipiperidin]-1-yl)-2-methylbutanoic acid] | < 100
14 | COCCN1CCC[C@H](C2CCN(c3cc(N[C@H](C)c4ccc(Cl)cc4Cl)n4ncnc4n3)CC2)C1 [Example 11, N-((R)-1-(2,4-dichlorophenyl)ethyl)-5-((R)-1-(2-methoxyethyl)-[3,4′-bipiperidin]-1′-yl)-[1,2,4]triazolo[1,5-a]pyrimidin-7-amine] | < 100
15 | C[C@@H](Nc1cc(N2CCC([C@H]3CCCN(CCC(=O)O)C3)CC2)nc2ncnn12)c1ccc(Cl)cc1Cl [Example 14, 3-((R)-1′-(7-(((R)-1-(2,4-dichlorophenyl)ethyl)amino)-[1,2,4]triazolo[1,5-a]pyrimidin-5-yl)-[3,4′-bipiperidin]-1-yl)propanoic acid] | < 100
16 | CC(CN1CCC[C@H](C2CCN(c3cc(N[C@H](C)c4ccc(Cl)cc4Cl)n4ncnc4n3)CC2)C1)C(=O)O (mixture of isomers) [Example 15, 3-((R)-1′-(7-(((R)-1-(2,4-dichlorophenyl)ethyl)amino)-[1,2,4]triazolo[1,5-a]pyrimidin-5-yl)-[3,4′-bipiperidin]-1-yl)-2-methylpropanoic acid] | < 100
17 | C[C@@H](Nc1cc(N2CCC([C@H]3CCCN([C@H]4C[C@](C)(C(=O)O)C4)C3)CC2)nc2ccnn12)c1ccc(Cl)cc1Cl [Example 24, (1R,3r)-3-((R)-1′-(7-(((R)-1-(2,4-dichlorophenyl)ethyl)amino)pyrazolo[1,5-a]pyrimidin-5-yl)-[3,4′-bipiperidin]-1-yl)-1-methylcyclobutane-1-carboxylic acid] | < 100
18 | C[C@@H](Nc1cc(N2CCC([C@H]3CCCN(CCO)C3)CC2)nc2ncnn12)c1ccc(Cl)cc1Cl [Example 8, 2-((R)-1′-(7-(((R)-1-(2,4-dichlorophenyl)ethyl)amino)-[1,2,4]triazolo[1,5-a]pyrimidin-5-yl)-[3,4′-bipiperidin]-1-yl)ethan-1-ol] | < 100
19 | C[C@@H](Nc1cc(N2CCC([C@H]3CCCN(CC#N)C3)CC2)nc2ncnn12)c1ccc(Cl)cc1Cl [Example 3, 2-((R)-1′-(7-(((R)-1-(2,4-dichlorophenyl)ethyl)amino)-[1,2,4]triazolo[1,5-a]pyrimidin-5-yl)-[3,4′-bipiperidin]-1-yl)acetonitrile] | < 100
20 | C[C@@H](Nc1cc(N2CCC([C@H]3CCCN([C@H]4C[C@](C)(C(=O)O)C4)C3)CC2)nc2ncnn12)c1ccc(F)cc1F [Example 35, (1R,3r)-3-((R)-1′-(7-(((R)-1-(2,4-difluorophenyl)ethyl)amino)-[1,2,4]triazolo[1,5-a]pyrimidin-5-yl)-[3,4′-bipiperidin]-1-yl)-1-methylcyclobutane-1-carboxylic acid] | 100 to 500
21 | C[C@@H](Nc1cc(N2CCC([C@H]3CCCN([C@H]4C[C@](C)(C(=O)O)C4)C3)CC2)nc2ccnn12)c1ccc(F)cc1Cl [Example 25, (1R,3r)-3-((R)-1′-(7-(((R)-1-(2-chloro-4-fluorophenyl)ethyl)amino)pyrazolo[1,5-a]pyrimidin-5-yl)-[3,4′-bipiperidin]-1-yl)-1-methylcyclobutane-1-carboxylic acid] | < 100
22 | Cc1cc(Cl)ccc1[C@@H](C)Nc1cc(N2CCC([C@H]3CCCN([C@H]4C[C@](C)(C(=O)O)C4)C3)CC2)nc2ncnn12 [Example 33, (1R,3r)-3-((R)-1′-(7-(((R)-1-(4-chloro-2-methylphenyl)ethyl)amino)-[1,2,4]triazolo[1,5-a]pyrimidin-5-yl)-[3,4′-bipiperidin]-1-yl)-1-methylcyclobutane-1-carboxylic acid] | 100 to 500
23 | C[C@@H](Nc1cc(N2CCC([C@H]3CCCN(C4CCCC4)C3)CC2)nc2ncnn12)c1ccc(Cl)cc1Cl [Example 10, 5-((R)-1-cyclopentyl-[3,4′-bipiperidin]-1′-yl)-N-((R)-1-(2,4-dichlorophenyl)ethyl)-[1,2,4]triazolo[1,5-a]pyrimidin-7-amine] | < 100
